Measured values from patent US20100168102A9, “Amide Derivatives as Kinase Inhibitors” (Devgen NV, priority 2005, published 2010).

Experiments:
[1] = target: T1, human ROCKα/ROCKII mix (Homo sapiens, UniProt O75116); test: Biochemical assay for ROCK (fluorescence polarization, ROCK IMAP Kit); details: Table 2, compounds of Formula XIII
T1 construct: purchased Upstate Biotechnology 14-451

[2] = target: T2, PKC epsilon (Homo sapiens, UniProt Q02156); test: Biochemical assay for PKC epsilon (fluorescence polarization, Protein Kinase C Assay Kit, Red); details: Table 2, compounds of Formula XIII; read-out: IC50 μM PKCε
T2 construct: purchased Invitrogen P2282
T2 sequence (Q02156 1-737): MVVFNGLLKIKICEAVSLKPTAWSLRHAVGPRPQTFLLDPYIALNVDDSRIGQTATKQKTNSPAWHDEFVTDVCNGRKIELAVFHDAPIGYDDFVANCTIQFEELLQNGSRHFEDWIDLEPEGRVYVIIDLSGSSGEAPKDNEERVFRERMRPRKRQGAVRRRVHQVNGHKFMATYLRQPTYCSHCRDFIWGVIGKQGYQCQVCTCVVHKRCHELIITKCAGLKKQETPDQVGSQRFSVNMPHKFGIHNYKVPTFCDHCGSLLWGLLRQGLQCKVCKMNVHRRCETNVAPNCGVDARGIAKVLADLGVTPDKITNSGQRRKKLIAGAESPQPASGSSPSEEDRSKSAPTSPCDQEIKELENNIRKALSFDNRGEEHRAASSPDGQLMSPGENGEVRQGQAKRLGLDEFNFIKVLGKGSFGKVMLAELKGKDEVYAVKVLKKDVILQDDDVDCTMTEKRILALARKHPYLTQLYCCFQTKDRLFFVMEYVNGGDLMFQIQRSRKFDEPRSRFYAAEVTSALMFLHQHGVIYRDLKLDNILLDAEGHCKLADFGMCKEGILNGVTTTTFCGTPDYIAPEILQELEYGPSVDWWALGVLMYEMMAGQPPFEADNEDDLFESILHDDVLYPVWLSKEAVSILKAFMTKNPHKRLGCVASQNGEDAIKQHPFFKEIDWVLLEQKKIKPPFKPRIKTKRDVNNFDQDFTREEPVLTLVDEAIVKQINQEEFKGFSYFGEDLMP
Outline: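 Read-out was fluorescence-polarization competition between phosphorylated substrate and a rhodamine PKC tracer for an anti-phosphoserine antibody, added with EDTA stop after an 80 min room-temperature kinase reaction with ATP and protein substrate (Mg2+/Ca2+ buffer). Enzyme (10 ng/ml final) was preincubated with compound for 30 min.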

T1 sequence (O75116 11-552 limits assumed): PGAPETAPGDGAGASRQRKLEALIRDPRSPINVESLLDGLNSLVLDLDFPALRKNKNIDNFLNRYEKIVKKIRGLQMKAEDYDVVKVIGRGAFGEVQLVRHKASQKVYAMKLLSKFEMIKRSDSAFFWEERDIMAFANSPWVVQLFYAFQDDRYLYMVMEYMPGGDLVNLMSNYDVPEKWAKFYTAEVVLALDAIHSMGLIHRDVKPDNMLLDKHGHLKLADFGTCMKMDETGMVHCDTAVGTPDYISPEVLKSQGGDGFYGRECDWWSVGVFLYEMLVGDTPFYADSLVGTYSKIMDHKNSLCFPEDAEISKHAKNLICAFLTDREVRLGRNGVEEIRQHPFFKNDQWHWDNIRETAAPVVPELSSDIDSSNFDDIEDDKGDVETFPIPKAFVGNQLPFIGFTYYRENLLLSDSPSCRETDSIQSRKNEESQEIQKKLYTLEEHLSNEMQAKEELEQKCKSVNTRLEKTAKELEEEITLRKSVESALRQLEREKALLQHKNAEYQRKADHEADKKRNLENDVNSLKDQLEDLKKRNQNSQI

Compound	IC50 [1]	IC50 [2]
NC(CNC(=O)c1ccc(-c2ccccc2)cc1)c1ccc(C(=O)Nc2ccncc2)cc1 (stereo not shown) [Compound 88, Biphenyl-4-carboxylic acid {2-amino-2-[4-(pyridin-4-ylcarbamoyl)-phenyl]-ethyl}-amide]	0.5 to 5 µM	5 to 50 µM
NC(CNC(=O)c1ccc(C(=O)c2ccccc2)cc1)c1ccc(C(=O)Nc2ccncc2)cc1 (stereo not shown) [Compound 100, 4-[1-amino-2-(4-benzoyl-benzoylamino)-ethyl]-N-pyridin-4-yl-benzamide]	0.5 to 5 µM	5 to 50 µM
NC(CNC(=O)c1ccccn1)c1ccc(C(=O)Nc2ccncc2)cc1 (stereo not shown) [Compound 105, Pyridine-2-carboxylic acid {2-amino-2-[4-(pyridin-4-ylcarbamoyl)-phenyl]-ethyl}-amide]	0.5 to 5 µM	5 to 50 µM
NC(CNC(=O)c1cnccn1)c1ccc(C(=O)Nc2ccncc2)cc1 (stereo not shown) [Compound 108, Pyrazine-2-carboxylic acid {2-amino-2-[4-(pyridin-4-ylcarbamoyl)-phenyl]-ethyl}-amide]	0.5 to 5 µM	5 to 50 µM
NC(CNC(=O)c1ccc(=O)[nH]n1)c1ccc(C(=O)Nc2ccncc2)cc1 (stereo not shown) [Compound 109, 6-Oxo-1,6-dihydro-pyridazine-3-carboxylic acid {2-amino-2-[4-(pyridin-4-ylcarbamoyl)-phenyl]-ethyl}-amide]	0.5 to 5 µM	5 to 50 µM
NC(CNC(=O)c1nccc2ccccc12)c1ccc(C(=O)Nc2ccncc2)cc1 (stereo not shown) [Compound 110, Isoquinoline-1-carboxylic acid {2-amino-2-[4-(pyridin-4-ylcarbamoyl)-phenyl]-ethyl}-amide]	0.5 to 5 µM	0.5 to 5 µM
NC(CNC(=O)c1ccnc2ccccc12)c1ccc(C(=O)Nc2ccncc2)cc1 (stereo not shown) [Compound 111, Quinoline-4-carboxylic acid {2-amino-2-[4-(pyridin-4-ylcarbamoyl)-phenyl]-ethyl}-amide]	0.5 to 5 µM	0.5 to 5 µM
NC(CNC(=O)c1cnnc2ccccc12)c1ccc(C(=O)Nc2ccncc2)cc1 (stereo not shown) [Compound 113, Cinnoline-4-carboxylic acid {2-amino-2-[4-(pyridin-4-ylcarbamoyl)-phenyl]-ethyl}-amide]	0.5 to 5 µM	0.5 to 5 µM
NC(CNC(=O)c1cccs1)c1ccc(C(=O)Nc2ccncc2)cc1 (stereo not shown) [Compound 116, Thiophene-2-carboxylic acid {2-amino-2-[4-(pyridin-4-ylcarbamoyl)-phenyl]-ethyl}-amide]	0.05 to 0.5 µM	0.05 to 0.5 µM
Cc1ccc(C(=O)NCC(N)c2ccc(C(=O)Nc3ccncc3)cc2)s1 (stereo not shown) [Compound 117, 5-Methyl-thiophene-2-carboxylic acid {2-amino-2-[4-(pyridin-4-ylcarbamoyl)-phenyl]-ethyl}-amide]	0.5 to 5 µM	0.5 to 5 µM
CC(=NOC(C)(C)C)c1ccc(C(=O)NCC(N)c2ccc(C(=O)Nc3ccncc3)cc2)s1 (stereo not shown) [Compound 118, 5-(1-tert-Butoxyimino-ethyl)-thiophene-2-carboxylic acid {2-amino-2-[4-(pyridin-4-ylcarbamoyl)-phenyl]-ethyl}-amide]	0.5 to 5 µM	5 to 50 µM
NC(CNC(=O)c1ccc([N+](=O)[O-])o1)c1ccc(C(=O)Nc2ccncc2)cc1 (stereo not shown) [Compound 120, 5-Nitro-furan-2-carboxylic acid {2-amino-2-[4-(pyridin-4-ylcarbamoyl)-phenyl]-ethyl}-amide]	0.5 to 5 µM	0.5 to 5 µM
Cn1cccc1C(=O)NCC(N)c1ccc(C(=O)Nc2ccncc2)cc1 (stereo not shown) [Compound 121, 1-Methyl-1H-pyrrole-2-carboxylic acid {2-amino-2-[4-(pyridin-4-ylcarbamoyl)-phenyl]-ethyl}-amide]	0.5 to 5 µM	0.5 to 5 µM
NC(CNC(=O)c1c[nH]cn1)c1ccc(C(=O)Nc2ccncc2)cc1 (stereo not shown) [Compound 122, 1H-Imidazole-4-carboxylic acid {2-amino-2-[4-(pyridin-4-ylcarbamoyl)-phenyl]-ethyl}-amide]	0.5 to 5 µM	5 to 50 µM
Nc1c(C(=O)NCC(N)c2ccc(C(=O)Nc3ccncc3)cc2)cnn1-c1ccc(F)cc1 (stereo not shown) [Compound 123, 5-Amino-1-(4-fluorophenyl)-1H-pyrazole-4-carboxylic acid {2-amino-2-[4-(pyridin-4-ylcarbamoyl)-phenyl]-ethyl}-amide]	0.5 to 5 µM	5 to 50 µM

Results, then the compound that gave them:

IC50 [1]	IC50 [2]	Compound
0.5 to 5 µM	0.5 to 5 µM	NC(CNC(=O)c1cccc(Cl)c1)c1ccc(C(=O)Nc2ccncc2)cc1 (stereo not shown) [Compound 89, 4-[1-amino-2-(3-chloro-benzoylamino)-ethyl]-N-pyridin-4-yl-benzamide]
0.5 to 5 µM	5 to 50 µM	NC(CNC(=O)c1ccc(Cl)cc1)c1ccc(C(=O)Nc2ccncc2)cc1 (stereo not shown) [Compound 90, 4-[1-amino-2-(4-chloro-benzoylamino)-ethyl]-N-pyridin-4-yl-benzamide]
0.5 to 5 µM	0.5 to 5 µM	NC(CNC(=O)c1cccc(Br)c1)c1ccc(C(=O)Nc2ccncc2)cc1 (stereo not shown) [Compound 91, 4-[1-amino-2-(3-bromo-benzoylamino)-ethyl]-N-pyridin-4-yl-benzamide]
0.5 to 5 µM	0.5 to 5 µM	NC(CNC(=O)c1cccc(F)c1)c1ccc(C(=O)Nc2ccncc2)cc1 (stereo not shown) [Compound 92, 4-[1-amino-2-(3-fluoro-benzoylamino)-ethyl]-N-pyridin-4-yl-benzamide]
0.5 to 5 µM	0.5 to 5 µM	NC(CNC(=O)c1ccc(F)cc1)c1ccc(C(=O)Nc2ccncc2)cc1 (stereo not shown) [Compound 93, 4-[1-amino-2-(4-fluoro-benzoylamino)-ethyl]-N-pyridin-4-yl-benzamide]
0.5 to 5 µM	0.5 to 5 µM	N#Cc1cccc(C(=O)NCC(N)c2ccc(C(=O)Nc3ccncc3)cc2)c1 (stereo not shown) [Compound 94, 4-[1-amino-2-(3-cyano-benzoylamino)-ethyl]-N-pyridin-4-yl-benzamide]
0.5 to 5 µM	5 to 50 µM	N#Cc1ccc(C(=O)NCC(N)c2ccc(C(=O)Nc3ccncc3)cc2)cc1 (stereo not shown) [Compound 95, 4-[1-amino-2-(4-cyano-benzoylamino)-ethyl]-N-pyridin-4-yl-benzamide]
0.5 to 5 µM	0.5 to 5 µM	CS(=O)(=O)c1cccc(C(=O)NCC(N)c2ccc(C(=O)Nc3ccncc3)cc2)c1 (stereo not shown) [Compound 96, 4-[1-amino-2-(3-methanesulfonyl-benzoylamino)-ethyl]-N-pyridin-4-yl-benzamide]
0.5 to 5 µM	0.5 to 5 µM	CCNS(=O)(=O)c1cccc(C(=O)NCC(N)c2ccc(C(=O)Nc3ccncc3)cc2)c1 (stereo not shown) [Compound 97, 4-[1-amino-2-(3-ethylsulfamoyl-benzoylamino)-ethyl]-N-pyridin-4-yl-benzamide]
0.5 to 5 µM	5 to 50 µM	CNS(=O)(=O)c1ccc(C(=O)NCC(N)c2ccc(C(=O)Nc3ccncc3)cc2)cc1 (stereo not shown) [Compound 98, 4-[1-amino-2-(4-methylsulfamoyl-benzoylamino)-ethyl]-N-pyridin-4-yl-benzamide]
0.5 to 5 µM	0.5 to 5 µM	NC(CNC(=O)c1cccc(S(=O)(=O)Nc2ccccc2)c1)c1ccc(C(=O)Nc2ccncc2)cc1 (stereo not shown) [Compound 99, 4-[1-amino-2-(3-phenylsulfamoyl-benzoylamino)-ethyl]-N-pyridin-4-yl-benzamide]
0.5 to 5 µM	0.5 to 5 µM	NC(CNC(=O)c1cccc(Cn2cccn2)c1)c1ccc(C(=O)Nc2ccncc2)cc1 (stereo not shown) [Compound 103, 4-{1-amino-2-[(3-pyrazol-1ylmethyl)-benzoylamino]-ethyl}-N-pyridin-4-yl-benzamide]
0.5 to 5 µM	5 to 50 µM	NC(CNC(=O)c1ccncc1)c1ccc(C(=O)Nc2ccncc2)cc1 (stereo not shown) [Compound 104, N-{2-Amino-2-[4-(pyridin-4-ylcarbamoyl)-phenyl]-ethyl}-isonicotinamide]
0.5 to 5 µM	0.5 to 5 µM	NC(CNC(=O)c1cccnc1)c1ccc(C(=O)Nc2ccncc2)cc1 (stereo not shown) [Compound 106, N-{2-Amino-2-[4-(pyridin-4-ylcarbamoyl)-phenyl]-ethyl}-nicotinamide]
0.5 to 5 µM	5 to 50 µM	NC(CNC(=O)c1ccc2ncccc2c1)c1ccc(C(=O)Nc2ccncc2)cc1 (stereo not shown) [Compound 114, Quinoline-6-carboxylic acid {2-amino-2-[4-(pyridin-4-ylcarbamoyl)-phenyl]-ethyl}-amide]
0.05 to 0.5 µM	0.5 to 5 µM	NC(CNC(=O)c1ccsc1)c1ccc(C(=O)Nc2ccncc2)cc1 (stereo not shown) [Compound 115, Thiophene-3-carboxylic acid {2-amino-2-[4-(pyridin-4-ylcarbamoyl)-phenyl]-ethyl}-amide]
0.05 to 0.5 µM	0.5 to 5 µM	NC(CNC(=O)c1ccoc1)c1ccc(C(=O)Nc2ccncc2)cc1 (stereo not shown) [Compound 119, Furan-3-carboxylic acid {2-amino-2-[4-(pyridin-4-ylcarbamoyl)-phenyl]-ethyl}-amide]
